# Measurements taken from ChEMBL document CHEMBL6115007, “Synthesis and in vitro and in vivo evaluation of novel bivalent quinolines as antitumor agents via targeting autophagy in cervical cancer” (Eur J Med Chem, 2025).
# Calls of active or inactive are those of the source. The calls are words filed in the database; no cut-off is given here.
# Experiments:
# Format in all cases: functional, cell-based
# [1] = system: BGC-823; experiment: Antiproliferative activity against human BGC-823 cells assessed as reduction in cell optical density incubated for 48 hrs by MTT assay; conditions: BGC-823, 48 h
# [2] = system: HeLa; experiment: Antiproliferative activity against human HeLa cells assessed as reduction in cell optical density incubated for 48 hrs by MTT assay
# [3] = system: HepG2; experiment: Antiproliferative activity against human HepG2 cells assessed as reduction in cell optical density incubated for 48 hrs by MTT assay; conditions: HepG2, 48 h
# [4] = system: A549; experiment: Antiproliferative activity against human A549 cells assessed as reduction in cell optical density incubated for 48 hrs by MTT assay; conditions: A549, 48 h
# [5] = system: MCF7; experiment: Antiproliferative activity against human MCF7 cells assessed as reduction in cell optical density incubated for 48 hrs by MTT assay; conditions: MCF7, 48 h
# [6] = system: HCT-116; experiment: Antiproliferative activity against human HCT-116 cells assessed as reduction in cell optical density incubated for 48 hrs by MTT assay; conditions: HCT-116, 48 h
# [7] = system: HeLa; experiment: Induction of autophagy in human HeLa cells transfected with mRFP-GFP-LC3 plasmid assessed as stable RFP fluorescence at 30 uM incubated for 24 hrs by DAPI staining based fluorescence confocal microscopic analysis
# [8] = system: HeLa; experiment: Induction of ferroptosis in human HeLa cells assessed as increase in lipid ROS level by measuring rightward shift in fluorescence intensity at 8 uM measured after 12 hrs by C11-BODIPY-581/591 staining based flow cytometric analysis
# [9] = system: Ca-Ski; experiment: Induction of ferroptosis in human Ca Ski cells assessed as increase in lipid ROS level by measuring rightward shift in fluorescence intensity at 6 uM measured after 12 hrs by C11-BODIPY-581/591 staining based flow cytometric analysis
IC50 [1] [µM],IC50 [2] [µM],IC50 [3] [µM],IC50 [4] [nM],IC50 [5] [µM],IC50 [6] [µM],SMILES,Activity [7],Activity [8],Activity [9]
3.35,14.3,24.8,780,38,17.2,FC(F)(F)Oc1cccc(Nc2ccnc3cc(OCCCCCOc4ccc5c(Nc6cccc(OC(F)(F)F)c6)ccnc5c4)ccc23)c1,–,–,–
3.58,4.07,31.9,6150,5.55,6.99,COc1cccc(Nc2ccnc3cc(OCCCCCCOc4ccc5c(Nc6cccc(OC)c6)ccnc5c4)ccc23)c1,–,–,–
63.8,48.3,> 200,142000,47.2,> 200,COc1cccc(Nc2ccnc3cc(OCCCCOc4ccc5c(Nc6cccc(OC)c6)ccnc5c4)ccc23)c1,–,–,–
89.4,28.3,44.8,310,> 200,10.3,FC(F)(F)Oc1cccc(Nc2ccnc3cc(OCCCCCCOc4ccc5c(Nc6cccc(OC(F)(F)F)c6)ccnc5c4)ccc23)c1,–,–,–
66,14.1,2.75,2750,> 200,13.5,FC(F)(F)Oc1cccc(Nc2ccnc3cc(OCCCCOc4ccc5c(Nc6cccc(OC(F)(F)F)c6)ccnc5c4)ccc23)c1,–,–,–
9.82,0.94,0.36,750,> 200,6.64,Fc1cccc(Nc2ccnc3cc(OCCCCCCOc4ccc5c(Nc6cccc(F)c6)ccnc5c4)ccc23)c1,–,–,–
18.7,37.3,10.5,13300,6.79,17.1,Fc1cccc(Nc2ccnc3cc(OCCCCOc4ccc5c(Nc6cccc(F)c6)ccnc5c4)ccc23)c1,–,–,–
2.44,4.34,45.4,2550,4.98,3.28,Fc1cccc(Nc2ccnc3cc(OCCCCCOc4ccc5c(Nc6cccc(F)c6)ccnc5c4)ccc23)c1,–,–,–

# Further lines, the molecule ahead of its results:
SMILES,IC50 [1] [µM],IC50 [2] [µM],IC50 [3] [µM],IC50 [4] [nM],IC50 [5] [µM],IC50 [6] [µM],Activity [7],Activity [8],Activity [9]
CN1CCN(c2ccnc3cc(OCCCCCOc4ccc5c(N6CCN(C)CC6)ccnc5c4)ccc23)CC1,3.55,30.9,35.1,26000,6.03,3.85,–,–,–
CN1CCN(c2ccnc3cc(OCCCCCCOc4ccc5c(N6CCN(C)CC6)ccnc5c4)ccc23)CC1,50.2,26.1,43.3,330,44.3,42.3,–,–,–
CO[C@H]1C[C@@H]2CC[C@@H](C)[C@@](O)(O2)C(=O)C(=O)N2CCCC[C@H]2C(=O)O[C@H]([C@H](C)C[C@@H]2CC[C@@H](O)[C@H](OC)C2)CC(=O)[C@H](C)/C=C(\C)[C@@H](O)[C@@H](OC)C(=O)[C@H](C)C[C@H](C)/C=C/C=C/C=C/1C,–,–,–,–,–,–,Active,–,–
COC(=O)c1ccc([C@H]2c3[nH]c4ccccc4c3C[C@H](C(=O)OC)N2C(=O)CCl)cc1,–,–,–,–,–,–,–,Active,Active
CN1CCN(c2ccnc3cc(OCCCCOc4ccc5c(N6CCN(C)CC6)ccnc5c4)ccc23)CC1,136,146,> 200,139000,> 200,> 200,–,–,–
